This passage reports viability, T/C and IC50 results from PubChem BioAssay AID1919005 (Molecular Pharmacology Branch, DTP, NCI, 2023).

For the test, the system named is 855422-203-R-J1-PDC complex spheroid growth. Briefly: Anticancer human tumor 855422-203-R-J1-PDC patient-derived bladder carcinoma cell line growth inhibition [AhR]. Particulars: for viability, T/C: stronger effect = lower value. An excerpt: Multicellular complex tumor spheroid response to aryl hydrocarbon receptor antagonists in combination with a variety of drugs and investigational agents in selected tumor cell lines
The current study was undertaken to assess response to aryl hydrocarbon receptor antagonists in combination with standard-of-care drugs and investigational agents in solid tumor complex spheroid models. Complex spheroids include a stromal component modeled by human endothelial cells (HUVEC) and fibroblasts modeled by human mesenchymal stem cells (MSCs). The concentration ranges selected for each drug and investigational agent were based upon clinically achievable concentrations if the clinical Cmax of the agent was known.
Compounds. The drugs and investigational agents: BAY 2416964 (NSC825713), GNF351 (NSC835774), CH-223191 (NSC835775), CPI-455 (NSC825282), aza-TdCyd (NSC777586), decitabine (NSC127716), belinostat (NSC758774), entinostat (NSC756642), pevonedistat (NSC761192), tazemetostat (NSC777109), talazoparib (NSC765396), olaparib (NSC753686), selinexor (NSC780203), nedisertib (M3814, NSC802822), bortezomib (NSC756655), venetoclax (NSC766270), doxorubicin (NSC123127), elimusertib (BAY189344, NSC800525), ceralasertib (AZD6738, NSC777638), TAK-243 (NSC785004), alisertib (NSC759677), etoposide (NSC141540), topotecan (NSC609699), eribulin (NSC707389), gemcitabine (NSC613327), carboplatin (NSC241240), cisplatin (NSC119875), and SN-38 (NSC673596) were obtained from the National Cancer Institute (NCI) Developmental Therapeutics Program Chemical Repository (32). The FDA-approved anticancer drug set is available from the Developmental Therapeutics Program at https://dtp.cancer.gov/organization/dscb/obtaining/available plates.htm. […] The stock solutions were prepared in dimethyl sulfoxide (DMSO, Sigma-Aldrich, St. Louis, MO, cat. D2650), except for the platinum compounds which were prepared in saline (Quality Biological, Gaithersburg, MD, cat. 114-055-101), at 800-fold the tested concentration and stored at -70 degrees C prior to their use. All drugs and investigational agents were tested over a range starting from a high concentration at or near the clinical Cmax and decreasing in half-log increments. If the clinical Cmax for an agent had not been determined, the highest concentration tested was 10 microM (Table 1).
Cell Culture. All cells were maintained in an incubator at 37 degrees C and 5% CO2 with 95% humidity. The PDC lines were cultured according to standard operating procedures established by the NCI PDMR (https://pdmr.cancer.gov). Briefly, all PDCs were thawed and cultured in Matrigel-coated flasks prepared with a working solution of 1X Ham's F-12 nutrient mix, without supplementation (Invitrogen, Waltham, MA, cat. 11765054), 100 U/mL penicillin-streptomycin (Invitrogen, cat. 15140122), and 2.5% Matrigel (Corning Inc., Corning, NY, cat. 354248) for the first three passages. All PDCs were cultured in complete DMEM/F-12 media containing advanced DMEM/F-12 (Invitrogen, cat. 12634028), 4.9% defined fetal bovine serum, heat inactivated (HyClone Laboratories Inc., Logan, UT, cat. SH30070.03HI), 389 ng/mL hydrocortisone (Sigma-Aldrich, cat. H4001), 9.7 ng/mL human EGF recombinant protein (Invitrogen, cat. PHG0313), 23.4 microg/mL adenine (Sigma-Aldrich, cat. A2786), 97.3 U/mL penicillin-streptomycin (Invitrogen, cat. 15140122), 1.9 mM L-glutamine (Invitrogen, cat. 25030081), and 9.7 microM Y-27632 dihydrochloride (Tocris Bioscience, Bristol, United Kingdom, cat. 1254). The PDCs were cultured in complete DMEM/F12 media without 10 microM Y-27632 dihydrochloride for at least two passages prior to the screen. The established cell lines NCI-H1341 and […] were cultured in DMEM/F-12, HEPES (Invitrogen, cat. 11330032), 5% defined fetal bovine serum (HyClone Laboratories Inc., cat. SH30070.03), ITS premix universal culture supplement [insulin (5 microg/mL), transferrin (5 microg/mL), and selenious acid (5 ng/mL)] […]

The mark [1] stands for this setting: curve of first compound, second compound 0.1 µM.
[2] abbreviates: curve of first compound, second compound 0.316 µM.
The mark [3] stands for this setting: curve of first compound, second compound 1 µM.
Setting [4] is: curve of first compound, second compound 3.16 µM.
Where [5] appears, read: curve of first compound, second compound 10 µM.

Each structure is given as a SMILES string. Where “and” joins values, the source holds several entries; their conditions need not be identical. Equal entries are not always repeated.
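Also: spheroids exposed to agents for seven days before readout.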
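For viability, T/C in this document: percent of DMSO vehicle control luminescence viability.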

`COc1ccc([C@@H](O)c2cc(-c3ncnc4cc(N5CCOCC5)ccc34)c(F)cc2Cl)nn1`: the viability, T/C – broadly, the result in the treated group divided by that in the control group, in per cent – is, setting by setting: (compound 0.0316 µM) 115% and 108% (2×); (compound 0.1 µM) 97.6% and 101% and 89.4%; (compound 0.316 µM) 102% and 105% and 88.9%; (compound 1 µM) 89.7% and 98.2% and 82%; (compound 3.16 µM) 79% and 89.1% and 76.9%; (compound 10 µM) 52.3% and 71.5% and 57.8%. Also, the concentration for half-maximal inhibition (IC50) (commonly the point on the concentration scale where inhibition reaches its midpoint) (curve of compound) was over 10000 nM.
Regarding `COc1cc(C2c3cc4c(cc3C(OC3OC5COC(C)OC5C(O)C3O)C3COC(=O)C23)OCO4)cc(OC)c1O` (stereo not given) + Cc1ccccc1N=Nc1ccc(NC(=O)c2ccnn2C)c(C)c1, the IC50 came out at 468 nM under setting [1]; 463 nM under setting [2]; 505 nM under setting [3]; 434 nM under setting [4]; 368 nM under setting [5]. Besides, the viability, T/C (second compound 0.1 µM, first compound 0.0316 µM) was 96.5%; the viability, T/C (second compound 0.1 µM, first compound 0.1 µM) was 93.2%; the viability, T/C (second compound 0.1 µM, first compound 0.316 µM) was 60.8%; the viability, T/C (second compound 0.1 µM, first compound 1 µM) is 26.7%; the viability, T/C (second compound 0.1 µM, first compound 3.16 µM) was 15.2%; the viability, T/C (second compound 0.1 µM, first compound 10 µM) is 7.04%. In addition, the viability, T/C by setting is: (second compound 0.316 µM, first compound 0.0316 µM) 93.7%; (second compound 0.316 µM, first compound 0.1 µM) 96.6%; (second compound 0.316 µM, first compound 0.316 µM) 61%; (second compound 0.316 µM, first compound 1 µM) 24.6%; (second compound 0.316 µM, first compound 3.16 µM) 14.8%; (second compound 0.316 µM, first compound 10 µM) 6.03%. Besides, the viability, T/C is 98.8% (second compound 1 µM, first compound 0.0316 µM); 95.7% (second compound 1 µM, first compound 0.1 µM); 65% (second compound 1 µM, first compound 0.316 µM); 26.5% (second compound 1 µM, first compound 1 µM); 15.9% (second compound 1 µM, first compound 3.16 µM); 6.19% (second compound 1 µM, first compound 10 µM). Moreover, the viability, T/C reads like this: (second compound 3.16 µM, first compound 0.0316 µM) 82.9%; (second compound 3.16 µM, first compound 0.1 µM) 83.9%; (second compound 3.16 µM, first compound 0.316 µM) 58.1%; (second compound 3.16 µM, first compound 1 µM) 25.3%; (second compound 3.16 µM, first compound 3.16 µM) 12.4%; (second compound 3.16 µM, first compound 10 µM) 5.67%. Besides, the viability, T/C (second compound 10 µM, first compound 0.0316 µM) was 83%; the viability, T/C (second compound 10 µM, first compound 0.1 µM) is 82.8%; the viability, T/C (second compound 10 µM, first compound 0.316 µM) was 48.3%; the viability, T/C (second compound 10 µM, first compound 1 µM) was 29.8%; the viability, T/C (second compound 10 µM, first compound 3.16 µM) is 13.7%; the viability, T/C (second compound 10 µM, first compound 10 µM) is 7.06%.
Regarding `CCc1c2c(nc3ccc(O)cc13)-c1cc3c(c(=O)n1C2)COC(=O)[C@]3(O)CC` + Cc1ccccc1N=Nc1ccc(NC(=O)c2ccnn2C)c(C)c1, the IC50 stood at 18.1 nM under setting [1]; 15.5 nM under setting [2]; 11.5 nM under setting [3]; 7.01 nM under setting [4]; 5.43 nM under setting [5]. The viability, T/C runs as follows: (second compound 0.1 µM, first compound 0.000949 µM) 107%; (second compound 0.1 µM, first compound 0.003 µM) 98.3%; (second compound 0.1 µM, first compound 0.00949 µM) 75.5%; (second compound 0.1 µM, first compound 0.03 µM) 29.6%; (second compound 0.1 µM, first compound 0.0949 µM) 17.4%; (second compound 0.1 µM, first compound 0.3 µM) 11.5%. Moreover, the viability, T/C (second compound 0.316 µM, first compound 0.000949 µM) is 98.3%; the viability, T/C (second compound 0.316 µM, first compound 0.003 µM) is 93.7%; the viability, T/C (second compound 0.316 µM, first compound 0.00949 µM) was 68.1%; the viability, T/C (second compound 0.316 µM, first compound 0.03 µM) was 25.2%; the viability, T/C (second compound 0.316 µM, first compound 0.0949 µM) was 14.6%; the viability, T/C (second compound 0.316 µM, first compound 0.3 µM) was 9.09%. In addition, the viability, T/C was 102% (second compound 1 µM, first compound 0.000949 µM); 95.3% (second compound 1 µM, first compound 0.003 µM); 55.5% (second compound 1 µM, first compound 0.00949 µM); 20.7% (second compound 1 µM, first compound 0.03 µM); 14% (second compound 1 µM, first compound 0.0949 µM); 9.24% (second compound 1 µM, first compound 0.3 µM). Besides, the viability, T/C is 92.3% (second compound 3.16 µM, first compound 0.000949 µM); 81.8% (second compound 3.16 µM, first compound 0.003 µM); 36.8% (second compound 3.16 µM, first compound 0.00949 µM); 21.7% (second compound 3.16 µM, first compound 0.03 µM); 13% (second compound 3.16 µM, first compound 0.0949 µM); 7.68% (second compound 3.16 µM, first compound 0.3 µM). Besides, the viability, T/C reads like this: (second compound 10 µM, first compound 0.000949 µM) 76.5%; (second compound 10 µM, first compound 0.003 µM) 73.4%; (second compound 10 µM, first compound 0.00949 µM) 28.1%; (second compound 10 µM, first compound 0.03 µM) 22%; (second compound 10 µM, first compound 0.0949 µM) 13.7%; (second compound 10 µM, first compound 0.3 µM) 9.18%.
In the case of `Cc1cncc(-c2nc(NCCc3c[nH]c4ccccc34)c3ncn(C(C)C)c3n2)c1`, the viability, T/C reads like this: (compound 0.1 µM) 92.2% [middle of 19 runs]; (compound 1 µM) 86.3% [middle of 20 runs]. In addition, where the note is “compound alone, run of 06/06/2022”, the 50% inhibitory concentration (IC50) is 5.43 µM [middle of 22 runs].
